Experimental findings from patent US8030344B2, “Inhibitors of histone deacetylase” (MethylGene Inc., priority 2007, dated 2011) are described below.

Bounds are passed on as bounds.

Assay [1] deals with HCT116 cells. As to the kind of experiment: MTT assay on HCT116 cells. The class given is cell-based. Particulars: Homo sapiens, HCT-116; 72 hours incubation; concentration reducing cell numbers to 50% of solvent treated cells. How it is done: (§1) HCT116 cells (2000/well) are plated into 96-well tissue culture plates one day before compound treatment. Representative compounds at various concentrations were added to the cells. The cells are incubated for 72 hours at 37° C. in 5% CO2 incubator. MTT (3-[4,5-dimethylthiazol-2-yl]-2,5 diphenyl tetrazolium bromide, Sigma) is added at a final concentration of 0.5 mg/ml and incubated with the cells for 4 hours before one volume of solubilization buffer (50% N,N-dimethylformamide, 20% SDS, pH 4.7) is added onto the cultured cells. After overnight incubation, solubilized dye is quantified by calorimetric reading at 570 nM using a reference at 630 nM. OD values are converted to cell numbers according to a standard growth curve of the relevant cell line. The concentration which reduces cell numbers to 50% of that of solvent treated cells is determined as MTT IC50. A similar assay is performed on HMEC cells.

Assay [2] has as its target HDAC-1 (Homo sapiens, UniProt Q13547). As to the kind of experiment: Inhibition of histone deacetylase enzymatic (HDAC-1) activity, Boc-Lys(Ac)-AMC fluorescence assay. The class given is biochemical. How it is done: Inhibition of Histone Deacetylase Enzymatic (HDAC-1) Activity
(§2) The following protocol is used to assay the compounds of the invention. In the assay, the buffer used is 25 mM HEPES, pH 8.0, 137 mM NaCl, 2.7 mM KCl, 1 mM MgCl2 and the substrate is Boc-Lys(Ac)-AMC in a 50 mM stock solution in DMSO. The enzyme stock solution is 4.08 μg/mL in buffer.
(§3) The compounds are pre-incubated (2 μl in DMSO diluted to 13 μl in buffer for transfer to assay plate) with enzyme (20 μl of 4.08 μg/ml) for 10 minutes at room temperature (35 μl pre-incubation volume). The mixture is pre-incubated for 5 minutes at room temperature. The reaction is started by bringing the temperature to 37° C. and adding 15 μl substrate. Total reaction volume is 50 μl. The reaction is stopped after 20 minutes by addition of 50 μl developer, prepared as directed by Biomol (Fluor-de-Lys developer, Cat. # KI-105). A plate is incubated in the dark for 10 minutes at room temperature before reading (λEx=360 nm, λEm=470 nm, Cutoff filter at 435 nm). Similar assays are performed to measure HDAC-2 inhibitory activity

For assay [3], the target named is HDAC-2 (Homo sapiens, UniProt Q92769). Kind of assay: Similar assay measuring HDAC-2 inhibitory activity. The class given is biochemical. The method, then:
as §2, §3

Assay [4] deals with HMEC cells. Kind of assay: MTT assay on HMEC cells. The class given is cell-based. Particulars: Homo sapiens; similar MTT assay on HMEC cells. How it is done:
as §1
(In general: Tetrazolium assays rely on reduction of a dye to a coloured formazan, in cell work by metabolically active cells.)

Sequence of HDAC-2 (Q92769 whole entry): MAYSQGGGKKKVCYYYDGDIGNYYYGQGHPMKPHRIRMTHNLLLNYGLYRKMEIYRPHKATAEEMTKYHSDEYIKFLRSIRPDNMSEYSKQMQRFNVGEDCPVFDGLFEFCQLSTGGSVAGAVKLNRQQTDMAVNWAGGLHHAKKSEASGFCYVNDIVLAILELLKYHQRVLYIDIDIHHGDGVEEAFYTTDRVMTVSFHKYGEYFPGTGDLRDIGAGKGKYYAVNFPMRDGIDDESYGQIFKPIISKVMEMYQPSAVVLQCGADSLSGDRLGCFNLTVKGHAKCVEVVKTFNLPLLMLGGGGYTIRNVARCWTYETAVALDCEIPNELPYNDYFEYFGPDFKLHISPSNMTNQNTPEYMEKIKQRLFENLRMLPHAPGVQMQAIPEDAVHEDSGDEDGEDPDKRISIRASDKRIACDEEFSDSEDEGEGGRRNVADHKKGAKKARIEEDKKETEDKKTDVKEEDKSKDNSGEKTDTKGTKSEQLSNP
Sequence of HDAC-1 (Q13547 whole entry): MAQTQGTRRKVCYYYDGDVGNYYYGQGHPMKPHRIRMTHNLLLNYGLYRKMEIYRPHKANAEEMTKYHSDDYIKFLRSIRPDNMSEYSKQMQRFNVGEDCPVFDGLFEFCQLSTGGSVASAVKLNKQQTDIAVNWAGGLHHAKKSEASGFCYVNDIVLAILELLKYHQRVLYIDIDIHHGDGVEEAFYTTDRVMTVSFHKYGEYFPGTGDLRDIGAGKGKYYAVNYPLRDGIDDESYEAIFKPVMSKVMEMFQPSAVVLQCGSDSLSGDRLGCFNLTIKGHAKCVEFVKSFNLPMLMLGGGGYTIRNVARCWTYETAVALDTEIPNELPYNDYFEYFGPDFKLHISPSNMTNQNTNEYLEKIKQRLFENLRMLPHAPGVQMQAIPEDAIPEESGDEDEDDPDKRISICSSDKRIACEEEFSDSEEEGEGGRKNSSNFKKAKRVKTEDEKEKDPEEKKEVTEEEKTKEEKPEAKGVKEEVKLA

Turning to `CN(C)CC(=O)N[C@H]1CCN(c2ccc(C(=O)Nc3ccccc3N)cc2)C1` [Compound 141, (S)-N-(2-Aminophenyl)-4-(3-(2-(dimethylamino)acetamido)pyrrolidin-1-yl)benzamide], the IC50 in assay [1] was no more than 5000 nM; in assay [2], no more than 500 nM; in assay [3], no more than 5000 nM; in assay [4] it was greater than 50000 nM.

Turning to `Nc1ccccc1NC(=O)c1ccc(N2CC[C@H](NC(=O)OCc3ccncc3)C2)cc1` [Compound 142, (S)-Pyridin-4-ylmethyl 1-(4-(2-aminophenylcarbamoyl)phenyl)pyrrolidin-3-yl carbamate], the IC50 in assay [1] is no more than 1000 nM; in assay [2], no more than 100 nM; in assay [3], no more than 500 nM; in assay [4], no more than 50000 nM.

Turning to `Nc1ccccc1NC(=O)c1ccc(N2CC[C@H](NC(=O)OCc3ccccn3)C2)cc1` [Compound 143, (S)-Pyridin-2-ylmethyl 1-(4-(2-aminophenylcarbamoyl)phenyl)pyrrolidin-3-yl carbamate], the IC50 was no more than 1000 nM in assay [1], no more than 500 nM in assay [2], no more than 500 nM in assay [3] and no more than 50000 nM in assay [4].

In the case of `Nc1ccccc1NC(=O)c1ccc(N2CC[C@H](NC(=O)OCc3ccoc3)C2)cc1` [Compound 145, (S)-Furan-3-ylmethyl 1-(4-(2-aminophenylcarbamoyl)phenyl) pyrrolidin-3-yl carbamate], the IC50 in assay [1] was no more than 500 nM; in assay [2], no more than 100 nM; in assay [3], no more than 500 nM; in assay [4], no more than 50000 nM.

Regarding `COC(=O)N[C@H]1CCN(c2ccc(C(=O)Nc3ccccc3N)cn2)C1` [Compound 155, (S)-Methyl 1-(5-(2-aminophenylcarbamoyl)pyridin-2-yl)pyrrolidin-3-ylcarbamate], the IC50 is no more than 5000 nM in assay [1], no more than 500 nM in assay [2], no more than 5000 nM in assay [3] and no more than 50000 nM in assay [4].

Turning to `CCOC(=O)N[C@H]1CCN(c2ccc(C(=O)Nc3ccccc3N)cn2)C1` [Compound 156, (S)-Ethyl 1-(5-(2-aminophenylcarbamoyl)pyridin-2-yl)pyrrolidin-3-ylcarbamate], the IC50 in assay [1] was no more than 1000 nM; in assay [2], no more than 500 nM; in assay [3], no more than 1000 nM; in assay [4], no more than 50000 nM.

As to `CCNC(=O)O[C@H]1CCN(c2ccc(C(=O)Nc3ccccc3N)cc2)C1` [Compound 162, (S)-1-(4-(2-Aminophenylcarbamoyl)phenyl)pyrrolidin-3-yl ethyl carbamate], the IC50 in assay [1] was no more than 5000 nM; in assay [2] it was no more than 500 nM; in assay [3], no more than 5000 nM; in assay [4] it was greater than 50000 nM.

Take `Nc1ccccc1NC(=O)c1ccc(N2CC[C@H](OC(=S)NCCN3CCOCC3)C2)cc1` [Compound 163, (S)-O-1-(4-(2-Aminophenylcarbamoyl)phenyl)pyrrolidin-3-yl 2-morpholinoethylcarbamothioate]: the IC50 in assay [1] was no more than 5000 nM; in assay [2], no more than 500 nM; in assay [3] it was no more than 5000 nM; in assay [4] it was no more than 50000 nM.

As to `COc1cc(CN(C(=O)OCc2ccccc2)[C@H]2CCN(c3ccc(C(=O)Nc4ccccc4N)cc3)C2)cc(OC)c1OC` [Compound 197, (S)-benzyl 1-(4-(2-aminophenylcarbamoyl)phenyl)-pyrrolidin-3-yl(3,4,5-trimethoxybenzyl)carbamate], the IC50 in assay [1] is no more than 1000 nM; in assay [2], no more than 500 nM; in assay [3] it was no more than 500 nM; in assay [4], greater than 50000 nM.

For the molecule `CC(C)OC(=O)N[C@H]1CCN(c2ccc(C(=O)Nc3ccccc3N)cc2)C1` [Compound 198, (S)-isopropyl 1-(4-(2-aminophenylcarbamoyl)phenyl)-pyrrolidin-3-ylcarbamate], the IC50 is no more than 1000 nM in assay [1], no more than 500 nM in assay [2], no more than 500 nM in assay [3] and no more than 50000 nM in assay [4].

With `Nc1ccccc1NC(=O)c1ccc(N2CC[C@H](NC(=O)OCC3CC3)C2)cc1` [Compound 199, (S)-cyclopropylmethyl 1-(4-(2-aminophenylcarbamoyl)phenyl)-pyrrolidin-3-ylcarbamate], the IC50 in assay [1] is no more than 500 nM; in assay [2], no more than 100 nM; in assay [3], no more than 500 nM; in assay [4], no more than 50000 nM.

`Nc1ccccc1NC(=O)c1ccc(N2CC[C@H](NC(=O)OC3CCOCC3)C2)cc1` [Compound 200, (S)-tetrahydro-2H-pyran-4-yl 1-(4-(2-aminophenylcarbamoyl)phenyl)-pyrrolidin-3-ylcarbamate]: the IC50 was no more than 500 nM in assay [1], no more than 500 nM in assay [2], no more than 500 nM in assay [3] and greater than 50000 nM in assay [4].

A word on the IC50: it is the concentration at which inhibition is half-maximal. A lower IC50 goes with inhibition by little substance.
